Values quoted from earlier work as cited in article PMC9297971 (Chembiochem, 2021).
pIC50: −log10 of the molar value.

System: HIV-1
Conditions: read-out: IC50 of clinically used T20; ref 15b, 36

- pIC50: 7.44 to 7.62
Substance: Enfuvirtide [T20]
